According to PMC9077470 (RSC Advances, 2018):
Entries after “also recorded” stand apart in the source; their conditions may differ.

Assays:
[1] = Partition coefficients in n-octanol/phosphate buffer (pH 7.4); type: physicochemical; details: means ± SD, n = 3
Procedure: The phosphate buffer and octanol were mutually saturated at 20–22 °C before use. Samples were dissolved in the aqueous phase and the n-octanol/phosphate buffer mixtures were shaken for 24 h to reach a distribution equilibrium. The volumes of each phase were chosen so that the solute concentration in the aqueous phase, before and after distribution, could readily be measured using HPLC method. The partition coefficients (P) were calculated from the following equation: [drawing 1] where Ci and Cw represent the solute concentrations in the aqueous buffer phase before and after distribution, respectively, Vw represents the volume of the aqueous phase, and Vo is the volume of the octanol phase.[16]

[2] = tested on: TNBS-induced experimental colitis; assay: TNBS-induced colitis: body weight, survival rates, overall effect; type: in vivo, mice; details: for body weight of mice / therapeutic effects on the TNBS-induced UC (overall): TNBS colitis mice; for body weight of mice: once daily 5 days, equivalent to 100 mg kg^−1 5-ASA; for therapeutic effects on the TNBS-induced UC (overall): Ols-DB as enema, others i.g.; for ameliorative effects on TNBS-induced colitis (overall), compared with positive control: vs positive control, oral administration
Procedure: Colitis was induced according to the previous study.[18,19] Briefly, after 12 h of fasting, mice were anesthetized with intraperitoneal pentobarbital sodium (35 mg kg^-1) before the induction of colitis. 0.1 mL of 50% (v/v) ethanol contained 2.5% (v/v) TNBS was instilled into the colon 3.5-4 cm from the anus by a gavage needle. The mice were kept in a head-down position for 30 s to prevent leakage of the intracolonic instillation. Mice in the control group received normal saline instead of TNBS solution, a physical mixture of 5-ASA and sodium butyrate was used as the positive control. […] The treatments were given once daily for 5 continuous days starting 24 hours after the induction of colitis. After the induction of colitis, the body weight of each mice was recorded daily, and the curves of weight changes for each group were drawn to evaluate the TNBS-induced colitis. Meanwhile, the death of mice in each group was recorded daily and the final survival rates of mice were calculated.

[3] = tested on: TNBS-induced experimental colitis; assay: TNBS-induced colitis: colon index and colonic damage score (CDS); type: in vivo, mice; details: for colon index, compared with positive control: vs positive control (5-ASDB p < 0.05, Ols-DBP p < 0.01); for CDS, compared with positive control: vs positive control, p < 0.05
Procedure: Colitis was induced according to the previous study.[18,19] Briefly, after 12 h of fasting, mice were anesthetized with intraperitoneal pentobarbital sodium (35 mg kg^-1) before the induction of colitis. 0.1 mL of 50% (v/v) ethanol contained 2.5% (v/v) TNBS was instilled into the colon 3.5-4 cm from the anus by a gavage needle. The mice were kept in a head-down position for 30 s to prevent leakage of the intracolonic instillation. Mice in the control group received normal saline instead of TNBS solution, a physical mixture of 5-ASA and sodium butyrate was used as the positive control. […] The treatments were given once daily for 5 continuous days starting 24 hours after the induction of colitis. At the end of the experiment, all mice were sacrificed and their entire colons were excised, opened longitudinally and washed carefully with normal saline. After dried with filter papers, colons were weighted and the length of colons was measured and recorded. The colon index was calculated as follows:Colon index (g dm^-1) = weight of colon/length of colon The colonic damage score (CDS) of mice in each group was evaluated according to the following criteria: 0, no ulcer and colitis; 1, no ulcer, local congestion; 2, ulcers, no local congestion; 3, ulcer and colitis at only one site; 4, ulcer and colitis at more than one sites; 5, over 2 cm of ulcer surface.[24]

Row | P (partition coefficient) [1] | logP at 24 h [1] | Compound | body weight of mice [2] | therapeutic effects on the TNBS-induced UC (overall) [2] | ameliorative effects on TNBS-induced colitis (overall), compared with positive control [2] | colon index, compared with positive control [3] | CDS, compared with positive control [3]
1 | 2.94 ± 0.37 | 0.47 ± 0.06 | CCCC(=O)OCC(COC(=O)CCC)OC(=O)c1cc(N=Nc2ccc(O)c(C(=O)OC(COC(=O)CCC)COC(=O)CCC)c2)ccc1O [Ols-DBP] | slight weight loss at first and gained gradually from the 2nd day | certain therapeutic effects | significantly greater than the positive control | significantly better than the positive control | significantly greater than the positive control
2 | 2.10 ± 0.24 | 0.32 ± 0.05 | CCCC(=O)Oc1ccc(N=Nc2ccc(OC(=O)CCC)c(C(=O)O)c2)cc1C(=O)O [Ols-DB, 3,3′-azobis(6-hydroxybenzoicacid)dibutyrate] | slight weight loss at first and gained gradually from the 2nd day | just as effective as 5-ASDB and Ols-DBP; also recorded: certain therapeutic effects |  |  | significantly greater than the positive control
3 | 3.81 ± 0.35 | 0.58 ± 0.04 | CCCC(=O)OCC(COC(=O)CCC)OC(=O)c1cc(N)ccc1O [5-ASDB, 2-(1,3-dibutyroxypropyl)-5-aminosalicylate] | slight weight loss at first and gained gradually from the 2nd day | certain therapeutic effects | significantly greater than the positive control | significantly better than the positive control | significantly greater than the positive control
